Source: paper PMC7367283, “A PIP2 substitute mediates voltage sensor-pore coupling in KCNQ activation” (Communications Biology, 2020)
Where “and” joins values, the source holds several entries; their conditions need not be identical. Equal values may be shown once.

Biological target: T1, IKs current (Chromanol 293B sensitive current) (Cavia porcellus, UniProt O70344)
T1 construct: Single ventricular myocytes were acutely enzymatically isolated from guinea pig heart; endogenous in cells; host or cells: freshly isolated guinea pig ventricular myocytes
T1 sequence (O70344 1-671): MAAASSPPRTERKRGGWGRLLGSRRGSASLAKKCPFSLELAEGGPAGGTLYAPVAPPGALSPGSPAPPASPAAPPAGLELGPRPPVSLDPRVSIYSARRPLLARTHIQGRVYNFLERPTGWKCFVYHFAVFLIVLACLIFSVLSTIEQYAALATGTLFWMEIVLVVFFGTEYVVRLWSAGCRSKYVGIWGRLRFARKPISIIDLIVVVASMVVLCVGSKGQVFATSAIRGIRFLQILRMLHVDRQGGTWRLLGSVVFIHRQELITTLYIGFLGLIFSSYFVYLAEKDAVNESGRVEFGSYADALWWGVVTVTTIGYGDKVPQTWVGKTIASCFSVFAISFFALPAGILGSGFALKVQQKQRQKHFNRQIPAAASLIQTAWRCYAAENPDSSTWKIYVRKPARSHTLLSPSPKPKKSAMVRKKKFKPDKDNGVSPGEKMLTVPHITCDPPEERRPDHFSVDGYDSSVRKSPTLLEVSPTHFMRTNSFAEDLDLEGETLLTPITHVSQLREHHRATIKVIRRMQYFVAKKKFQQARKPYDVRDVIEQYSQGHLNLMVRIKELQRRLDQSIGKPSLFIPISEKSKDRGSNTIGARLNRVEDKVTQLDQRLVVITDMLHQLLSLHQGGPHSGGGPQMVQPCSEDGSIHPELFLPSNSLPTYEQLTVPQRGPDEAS
Experiment: IKs measurements in isolated ventricular cells (whole-cell patch clamp);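 as to IKs current against voltage, source data Fig. 7d: tail currents measured at the -20 mV return potential after each test voltage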
Format: cell-based, guinea pig
Parameters: key to IKs current against time, source data Fig. 7b: IKs current normalized to cell capacitance (current density)
Conditions: for IKs current against voltage, source data Fig. 7d / IKs current against time, source data Fig. 7b: individual cells
Description: The KCNQ1 and KCNE1 complex forms the cardiac IKs channel, which is important in terminating cardiac action potentials and regulating heart rate[1],[2],[13]. We tested if CP1 modulates the IKs channel in cardiac myocytes. Similar to the results from KCNQ1 + KCNE1 expressed in Xenopus oocytes, in guinea pig ventricular myocyte CP1 enhanced IKs current (Chromanol 293B sensitive current) amplitude (Fig. 7a–c), shifted the G–V relation to more negative voltages (Fig. 7d, e), and slowed the kinetics of deactivation (Fig. 7a).
Fig. 7 Effects of CP1 on IKs and action potentials in cardiomyocytes. a IKs currents in guinea pig ventricular myocytes in the absence and presence of 30 µM CP1 in the whole-cell patch-clamp configuration. Holding potential: −40 mV; testing potentials: −20 to +60 mV with 10-mV increment; returning potential: −20 mV. […] Guinea pig ventricular myocytes were first perfused with 10 µM CP1 and 10 µM chromanol. After APD reached steady state, 10 µM CP1 was constitutively perfused alone. Last, CP1 was washed out for near-full reversal of APD shortening. g Effects of 0.2 µM CP1 on LQT action potentials. To mimic the LQT, 100 µM moxifloxacin was applied 2 h before the treatment of CP1. h Change of action potential duration after application of different [CP1]s (n = 5–7). Tukey–Kramer ANOVA test was used to compare control cells in different CP1 concentration, # is significant at P < 0.05. Unpaired two-tailed Student t tests were used to compare control and moxifloxacin cells at different CP1 concentration: * is significant at P < 0.05.
The use of guinea pigs was approved by the Stony Brook University Institutional Animal Care and Use Committee. Single ventricular myocytes were acutely enzymatically isolated from guinea pig heart as previously described. Guinea pigs, weighing 300–500 g, were sacrificed by peritoneal injection of sodium pentobarbitone (1 ml, 390 mg/ml). The isolated cells were stored in KB solution containing (in mM) 83 KCl, 30 K2HPO4, 5 MgSO4, 5 Na pyruvate, 5 β-OH-butyric acid, 20 creatine, 20 taurine, 10 glucose, and 0.5 EGTA, pH 7.2.
An Axopatch 1D amplifier (Axon Instruments, Inc.) and the whole-cell patch-clamp technique were used to measure the IKs current. The patch pipette solution contained (in mM) 140 KMeSO3, 20 HEPES, 2 KCl, 5 EGTA, and 5 MgATP, pH 7.4. The external Tyrode contains (in mM) 137.7 NaCl, 2.3 NaOH, 8 KCl, 1 MaCl2, 5 HEPES, 1 CdCl2, and 10 Glucose, pH 7.4. The cells were held at −40 mV and stepped to −20 mV, then to +60 mV with an increment of 10 mV, to measure the membrane current in the absence and the presence of chromanol 293B (10 μM). The chromanol 293B sensitive current was defined as the IKs current normalized to its cell capacitance. These experimental protocols and conditions eliminate most of the other membrane currents, such as IP, INa, ICa, and INa/Ca, except IK, so that we could obtain better experiment resolution.
Electrophysiology data were processed with IGOR (Wavemetrics, Lake Oswego, OR), Clampfit (Molecular Devices, Sunnyvale, CA), and SigmaPlot (SPSS, Inc., San Jose, CA). Normalized tail currents were plotted versus prepulse voltage and fitted with the Boltzmann function G = G0 + 1/(1 + exp(V − V1/2)/S), where G0 is the minimum conductance, V1/2 is the half-maximal voltage of activation, and S is the slope factor. Dose–response curves in Fig. 3 were fitted with the Hill equation, E = […], where EC50 is the drug concentration producing the half-maximum response and P is the Hill coefficient. In Fig. 7c, e, the EC50 values were obtained by fitting the data to IKs = IMin + (IMax − IMin) ([CP1]/([CP1] + EC50)) and V1/2 = V1/2 min + (V1/2Max − V1/2 min) ([CP1]/([CP1] + EC50)). The deactivation time course was fitted with single-exponential function. All data are expressed as mean ± SEM (n ≥ 3 or otherwise indicated). […]

## O=S(=O)([O-])Oc1c(-c2sc3c(ccc4cccc(Cl)c43)c2OS(=O)(=O)[O-])[nH]c2ccc(Br)cc12.[Na+].[Na+] [CP1, DISODIUM 5-BROMO-2-[9-CHLORO-3-(SULFONATOOXY) NAPHTHO [1,2-B] THIEN-2-YL]-1H-INDOL-3-YL SULFATE]
0.2 µM CP1, V 0 mV
  IKs current against voltage, source data Fig. 7d: 0.1478 and -0.1008 and 0.4867 and 0.5994 and 0.4202 and 0.2428
0.2 µM CP1, V 10 mV
  IKs current against voltage, source data Fig. 7d: 0.1364 and -8.00E-03 and 0.5359 and 0.687 and 0.4359 and 0.4419
0.2 µM CP1, V 20 mV
  IKs current against voltage, source data Fig. 7d: 0.5204 and 0.1788 and 0.7643 (2×) and 0.8582 and 0.5444
0.2 µM CP1, V 30 mV
  IKs current against voltage, source data Fig. 7d: 0.487 and 0.358 and 1.0844 and 1.2573 and 1.0686 and 0.7892
0.2 µM CP1, V 40 mV
  IKs current against voltage, source data Fig. 7d: 1.432 and 0.5726 and 1.6914 and 1.171 and 1.2536 and 1.1694
0.2 µM CP1, V 50 mV
  IKs current against voltage, source data Fig. 7d: 1.7002 and 1.1486 and 1.9537 (2×) and 1.6685 and 1.6372
0.2 µM CP1, V 60 mV
  IKs current against voltage, source data Fig. 7d: 2.1519 and 1.35 and 2.301 (2×) and 1.8192 and 1.8132
0.2 µM CP1, V -10 mV
  IKs current against voltage, source data Fig. 7d: 0.058 and -0.1764 and 0.4431 and 0.2854 and 0.2431 and 0.2625
0.2 µM CP1, V -20 mV
  IKs current against voltage, source data Fig. 7d: -0.0553 and -0.0272 and 0.3362 and 0.2344 and 0.1098 and 0.1296
0.2 µM CP1, time 0.5 s
  IKs current against time, source data Fig. 7b: -0.15 and 2.22E-03 and 0.4227 and 0.5059 and 0.5369 and 0.8337
0.2 µM CP1, time 1.5 s
  IKs current against time, source data Fig. 7b: 1.1736 and 1.2252 and 1.6869 and 1.7762 and 1.8153 and 1.921
0.2 µM CP1, time 2.5 s
  IKs current against time, source data Fig. 7b: 2.3476 and 2.2614 and 2.5619 and 2.5792 and 2.5781 and 2.9902
0.2 µM CP1, time 3.5 s
  IKs current against time, source data Fig. 7b: 4.1533 and 3.1046 and 3.3699 and 3.1301 and 3.5796 and 4.2972
0.2 µM CP1, time 4.5 s
  IKs current against time, source data Fig. 7b: 4.9536 and 3.6388 and 3.9362 and 3.649 and 4.0225 and 4.5344
6 µM CP1, V 0 mV
  IKs current against voltage, source data Fig. 7d: 0.1828 and 0.4288 and 0.6932 and 0.8299 and 0.4703 and 1.0496
6 µM CP1, V 10 mV
  IKs current against voltage, source data Fig. 7d: 0.4205 and 0.6933 and 0.9149 and 1.2568 and 0.6403 and 1.5345
6 µM CP1, V 20 mV
  IKs current against voltage, source data Fig. 7d: 0.8957 and 1.1412 and 1.496 and 1.8852 and 1.1797 and 2.1199
6 µM CP1, V 30 mV
  IKs current against voltage, source data Fig. 7d: 2.1345 and 1.6765 and 2.1151 and 2.7982 and 1.9302 and 2.5318
6 µM CP1, V 40 mV
  IKs current against voltage, source data Fig. 7d: 3.0845 and 2.1666 and 2.3348 and 3.4682 and 2.4976 and 3.0115
6 µM CP1, V 50 mV
  IKs current against voltage, source data Fig. 7d: 3.95 and 2.5666 and 2.4371 and 4.0362 and 3.2962 and 3.3006
6 µM CP1, V 60 mV
  IKs current against voltage, source data Fig. 7d: 4.0182 and 2.7319 and 3.0293 and 4.3101 and 3.6782 and 3.5497
6 µM CP1, V -10 mV
  IKs current against voltage, source data Fig. 7d: 0.0746 and 0.3017 and 0.5691 and 0.6051
6 µM CP1, time 0.5 s
  IKs current against time, source data Fig. 7b: 2.2824 and 1.9027 and 1.3849 and 1.6373 and 2.0899 and 2.4967
6 µM CP1, time 1.5 s
  IKs current against time, source data Fig. 7b: 5.0013 and 4.6878 and 3.7768 and 4.1793 and 4.2368 and 4.8342
6 µM CP1, time 2.5 s
  IKs current against time, source data Fig. 7b: 7.088 and 6.1654 and 5.3805 and 5.9272 and 5.6946 and 5.9483
6 µM CP1, time 3.5 s
  IKs current against time, source data Fig. 7b: 7.9334 and 7.0333 and 6.1833 and 7.248 and 6.5654 and 6.4263
6 µM CP1, time 4.5 s
  IKs current against time, source data Fig. 7b: 8.5672 and 7.9674 and 7.2346 and 7.483 and 7.0133 and 6.9913
30 µM CP1, time 0.5 s
  IKs current against time, source data Fig. 7b: 7.2666 and 7.1831 and 9.1229 and 4.6448 and 5.4151 and 6.3301 and 8.2811
30 µM CP1, time 1.5 s
  IKs current against time, source data Fig. 7b: 8.5502 and 9.0214 and 10.3674 and 6.9314 and 7.3351 and 7.6047 and 9.524
30 µM CP1, time 2.5 s
  IKs current against time, source data Fig. 7b: 9.051 and 9.8065 and 11.122 and 8.4037 and 8.6405 and 8.1616 and 9.9386
30 µM CP1, time 3.5 s
  IKs current against time, source data Fig. 7b: 9.3536 and 10.9247 and 11.9708 and 9.4071 and 9.5173 and 8.9351 and 10.1733
30 µM CP1, time 4.5 s
  IKs current against time, source data Fig. 7b: 10.006 and 11.718 and 12.1269 and 10.5686 and 10.3666 and 9.5544 and 10.5156
At +60 mV, read-out: EC50 of IKs current amplitude
  EC50: 7.54 µM
